Article PMC4682109, “The experimental power of FR900359 to study Gq-regulated biological processes” (Nature Communications, 2015)
Where two headings read alike, the source gives them in different places. Starred links: 1 amine or outer side, 2 acyl side, 3 side chain; linkers in the order of their positions; H or OH if unused. Positions of bridges follow the written chain, without caps; N, C: chain ends. Non-standard residues stand in square brackets, D forms with d. Residues, ends and D or L forms follow the SMILES beside them. ξ: configuration not given here. *: point of attachment. Leu(3R-OH,Nα-propionyl) = CCC(=O)N[C@H](C(=O)*)[C@H](O)C(C)C; X1 = CC(C)[C@@H](O[*:3])[C@H](N[*:1])C(=O)[*:2]; NMeT = CN[C@H](C(=O)O)[C@@H](C)O; dPhLac = O=C(O)[C@H](O)Cc1ccccc1; NMeA = CN[C@@H](C)C(=O)O; NMeDha = C=C(NC)C(=O)O; ξNMeA = CNC(C)C(=O)O

Legend:
[1] = system: HEK293 wild type and HEK293 Gαq/11 knockout cells; test: Cell viability (CellTiter-Blue, resazurin) in HEK293 wild type and Gαq/11 knockout cells; type: cell-based; settings: supramaximal FR concentrations, 24 h
Experimental: (§1) B16 cell viability in the presence of various concentrations of FR was measured using the XTT-based cell proliferation kit II (Fa. Roche) according to the manufacturer's protocols. Viability of HEK293 cell lines was assessed using a fluorimetric detection of resorufin (CellTiter-Blue Cell Viability Assay, Promega). Specifically, Gαq/11 ko-HEK293 and HEK293 cells were seeded at a density of 20,000 and 25,000 cells per well into black 96-well poly-D-lysine-coated plates with clear bottom, respectively. Three hours after seeding cells were treated with 0.3% DMSO or FR dissolved in medium for 24 h. To detect cell viability, CellTiter-Blue reagent was added and cells were incubated for 1 h at 37 °C according to the manufacturer's instructions. Fluorescence (excitation 560 nm, emission 590 nm) was measured using a FlexStation 3 Benchtop Multimode Plate Reader and data were expressed as percentage of cell viability relative to DMSO control.

[2] = system: HEK293 Gαq/11 knockout cells; test: Annexin V flow cytometry in HEK293 Gαq/11 knockout cells; type: cell-based; settings: FR 10 μM, 72 h; representative experiment
Excerpt: For apoptosis analysis of HEK293 cells, cells were stained for Annexin V by use of the Annexin V-FITC Apoptosis Detection Kit (Calbiochem) according to the manufacturer's instructions.

B16 cells = test: XTT metabolic activity of B16 cells; type: cell-based, mouse; settings: 72 h of FR treatment
Experimental: as §1

[3] = system: HEK293 Gαq/11 knockout cells; test: Cell growth and Ki67 staining in HEK293 Gαq/11 knockout cells; type: cell-based; settings: FR 10 μM
Experimental: For analysis of growth properties of HEK293 cells, 10^5 HEK 293 cells per well were seeded on a 6-well tissue culture plate. After 3 h cells were treated with either 10 μmol FR or 0.1% DMSO. After 72 h cell number was determined by counting in a Neubauer chamber.
Cells grown on coverslips were fixed with 4% paraformaldehyde in PBS and stained with antibodies as follows (in 0.2% Triton X in PBS, supplemented with 5% donkey serum; 2 h at room temperature): Ki67 MIB-1 (1:200, Covance) and vimentin (1:1,000, Chemicon). Primary antibodies were visualized by secondary antibodies conjugated to Cy5 (1:400, Jackson ImmunoResearch) diluted in 1 μg ml^−1 Hoechst 33342 (nuclei staining) at room temperature for 1 h. For documentation an inverted fluorescence microscope (Axiovert 200; Carl Zeiss MicroImaging, Inc.) equipped with a slider module (ApoTome; Carl Zeiss MicroImaging, Inc.), using filters for DAPI, GFP, Cy3 and Cy5, x25, x40 DIC Plan Apochromat oil objectives, an ebx 75 light source and an AxioCam MRm digital camera was used. Pictures were generated with the Axiovision Rel. 4.8 software (Zeiss).

Gq = biological target: T1, Gq (Cricetulus griseus, UniProt Q3HR10); test: IP1 accumulation in M1-CHO cells, carbachol; type: cell-based, Chinese hamster; settings: carbachol 30 µM, means ± SEM of at least three experiments, read-out: pIC50, IP1 (% of 30 µM carbachol) (converted)
T1 construct: endogenous in cells; host or cells: M1-CHO cells
T1 sequence (Q3HR10 1-359): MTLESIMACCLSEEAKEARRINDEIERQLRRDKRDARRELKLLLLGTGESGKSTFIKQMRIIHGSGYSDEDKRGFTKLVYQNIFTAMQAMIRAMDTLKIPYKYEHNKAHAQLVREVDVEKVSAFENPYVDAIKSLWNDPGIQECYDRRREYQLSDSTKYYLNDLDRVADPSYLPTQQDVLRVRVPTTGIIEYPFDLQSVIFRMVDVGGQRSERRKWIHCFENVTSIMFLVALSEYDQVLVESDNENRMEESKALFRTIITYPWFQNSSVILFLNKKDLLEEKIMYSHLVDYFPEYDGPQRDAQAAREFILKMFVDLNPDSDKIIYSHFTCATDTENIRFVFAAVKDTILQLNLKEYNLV
Experimental: (§2) Quantification of intracellular cAMP and IP1 was performed using the HTRF-cAMP dynamic kit and the HTRF-IP1 kit, respectively, on a Mithras LB 940 reader (Berthold Technologies) according to the manufacturer's instructions. For cAMP assays with M2-CHO cells, the Gi-biased muscarinic agonist iper-6-phth (ref. [30]) was applied.
Supplementary Figure 12: Catalytic hydrogenation of FR to produce “FR-red” and determination of its Gq-inhibitory activity. (a) The exocyclic double bond (yellow box) of FR was hydrogenated by hydrogen gas in the presence of palladium/carbon as a catalyst in a pressure tube in analogy to a procedure published for the hydrogenation of YM2. The structure of the product FR-red was confirmed by high performance liquid chromatography coupled to electrospray ionization mass spectrometry (LCMS) and by 1H- and 13C-NMR spectra. (b) M1-CHO cells were pre-incubated with increasing concentrations of FR or (also on this page, place not known: “FR -red” hydrogen ation YM 2. -red FR a b -8 -7 -6 -5 0 25 50 75 100 FR compound (log M) IP1 (% of 30 µM carbachol) FR FR-red)
(1 picture or pasted object on this page, not shown here)
FR-red and IP1 accumulation was determined in response to carbachol (30 µM). Inhibition of Gq protein […]
± 0.05). Data are means ± SEM of at least three independent experiments each performed in triplicate.

[4] = biological target: T2, purified recombinant Gαq (GαqΔ34) (Mus musculus, UniProt P21279); test: [3H]GDP dissociation from purified Gαq; type: biochemical
T2 construct: first 28 residues of rat Gαi1 (GNAI1, P10824 by own knowledge) (N); TEV-cleavage site (N); made in house; host or cells: insect cells (Sf9), pFastBac1 vector
T2 sequence (P21279 35-359): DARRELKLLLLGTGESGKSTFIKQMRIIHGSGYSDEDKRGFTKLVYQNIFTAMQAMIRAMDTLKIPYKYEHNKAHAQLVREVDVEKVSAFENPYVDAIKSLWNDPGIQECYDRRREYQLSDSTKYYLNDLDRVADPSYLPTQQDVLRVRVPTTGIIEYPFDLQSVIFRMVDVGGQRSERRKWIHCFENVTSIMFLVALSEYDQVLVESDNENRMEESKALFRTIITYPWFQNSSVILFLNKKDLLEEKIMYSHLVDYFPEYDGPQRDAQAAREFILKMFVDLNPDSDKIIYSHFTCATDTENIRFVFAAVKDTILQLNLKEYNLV
Experimental: GαqΔ34 (containing the first 28 residues of rat Gαi1 fused to mouse Gαq lacking the first 34 residues, and with a TEV-cleavage site between the Gαi1 and Gαq sequences) was purified after expression from a pFastBac1 vector in insect cells. Purified GαqΔ34 (∼7 mg ml^−1) was stored at −80 °C in 20 mM HEPES pH 8, 0.2 mM dithiothreitol, 2% (v/v) glycerol, 100 mM NaCl, 0.1 mg ml^−1 PMSF augmented with 10 mM NaF, 30 μM AlCl3, and 5 mM MgCl2.
[^3H]GDP exchange by Gαq was measured based on previous protocols. Briefly, purified GαqΔ34 (100 nM) was incubated with 1 μM [^3H]GDP (42,500 c.p.m. pmol^−1) and 50 mM (NH4)2SO4 for 18 h at 20 °C in assay buffer A (50 mM HEPES pH 7.5, 1 mM EDTA, 0.9 mM MgSO4, 1 mM dithiothreitol, and 0.05% Genapol C-100). Excess [^3H]GDP was removed from Gαq using a ZebaTM spin desalting column following the manufacturer's protocol (Thermo Scientific). Approximately 20% of Gαq incorporated the radiolabelled nucleotide. The reaction mixtures were then mixed with the same volume of assay buffer A in the presence of 0.1–2% dimethylsulphoxide (DMSO), 0–200 nM FR and 1.5 M (NH4)2SO4 to reach final concentrations of […] DMSO, 0–100 nM FR and 750 mM (NH4)2SO4 in the reaction. Dissociation of [^3H]GDP was monitored at 20 °C by stopping the reaction by addition of 4 ml of an ice-cold wash buffer (20 mM Tris pH 8.0, 100 mM NaCl and 2 mM MgSO4). The quenched mixtures were filtered through nitrocellulose membranes, the membranes were washed four times with ice-cold wash buffer, and the filters air-dried for at least 10 min. Radioactivity was quantified by scintillation spectrometry.
Supplementary Table 1: logEC values of the inhibitory effect of FR on [3H]GDP dissociation were
independent of the time point used for quantification.
[3H]GDP binding to purified Gαq proteins was quantified in presence of increasing concentrations of FR
after four different time points (30 min, 60 min, 90 min, 120 min). Data were analyzed by fitting [3H]GDP
binding versus FR concentration to the four parameter logistic function and the logarithm of the half
maximal effective concentrations (logEC50 expressed as means ± SEM from the respective curves in Fig.
7h) for FR-induced inhibition of [3H]GDP dissociation are presented.

ERK1/2 = test: HTRF-based ERK1/2 phosphorylation assay in melanoma cell lines; design: species or system human and mouse; settings: 1 μM, 1 h
Experimental: Quantification of phosphorylated ERK1/2 levels was performed using the phospho-ERK (Thr202/Tyr204) cellular assay kit (Cisbio). Melanoma cells were seeded into 96-well plates at a density of 25,000 or 50,000 cells per well and cultured overnight. The next day, medium was aspirated and cells were treated with 1 μM FR, 1 μM Trametinib, 1 μM Vemurafenib, or medium for 1 h at 37 °C. Subsequently, medium and inhibitors were removed and 50 μl lysis buffer were added to each well. The plates were incubated for 30 min at room temperature with shaking to lyse the cells and then frozen overnight at −20 °C. Lysates (16 μl) were transferred to a white 384-well plate. Anti-phospho-ERK1/2-d2 (2 μl) and anti-phospho-ERK1/2-Eu3^+-cryptate (2 μl) were added to each well and plates were incubated in the dark for 2 h at room temperature. Time-resolved fluorescence resonance energy transfer (FRET) signals were measured using the Mithras LB 940 multimode reader (Berthold Technologies).

[5] = system: CRTH2 β-arrestin2 recruitment; test: BRET2 β-arrestin2 recruitment to CRTH2; type: cell-based; settings: CRTH2-RLuc-GFP2-β-arrestin2-HEK293; PTX 16-20 h, FR 30 min
Experimental: For BRET^2 assays on HEK293 cells stably expressing CRTH2-Luc and GFP^2-β-arrestin2, cells were detached and resuspendend in HBSS with 20 mM HEPES at a density of 1.06 × 10^6 cells per ml. Cell suspension (170 μl) was distributed into white 96-well microplates and incubated in the presence of 10 μl buffer or agonist for 5 min before substrate addition. DeepBlueC coelenterazine (Gold Biotechnology, MO, USA; 20 μl per well) was injected by injector 3 to yield a final concentration of 5 μM. To detect BRET, light emissions at 400 and 515 nm were measured sequentially using a Mithras LB 940 instrument. The BRET signal (BRET ratio) was determined by calculating the ratio of the light emitted by the fluorescence acceptor (515 nm) and the light emitted by Rluc (400 nm). The cells were pretreated with PTX for 16–20 h and FR for 30 min.

[6] = system: Gi-sensitive prostaglandin D2 receptor DP2/CRTH2; test: cAMP lowering (HTRF), Gi-sensitive CRTH2 in CRTH2-HEK293; type: cell-based; settings: CRTH2-RLuc-GFP2-β-arrestin2-HEK293, PTX pretreatment
Experimental: as §2

Molecule: C=C1C(=O)N[C@@H](C)C(=O)N(C)[C@@H](C)C(=O)N[C@@H]([C@H](OC(=O)[C@@H](NC(=O)CC)[C@H](O)C(C)C)C(C)C)C(=O)N(C)[C@@H]([C@@H](C)OC)C(=O)O[C@H](C(C)C)[C@H](NC(C)=O)C(=O)O[C@H](Cc2ccccc2)C(=O)N1C [FR, FR900359] (Ac-[X1][dPhLac][NMeDha]A[NMeA][X1](Leu(3R-OH,Nα-propionyl))[NMeT](Me); ester 1-C)
- cell viability / cellular metabolic homoeostasis [1]: does not disturb cellular metabolic homoeostasis
- Annexin V [2]: 2.06%
- mitochondrial metabolism (XTT) (B16 cells): did not compromise mitochondrial metabolism
- percentage of proliferating cells (Ki67) ([3]; 24 h): did not alter
- cell growth ([3]; 72 h): did not alter
- IC50 (Gq): 263 nM
- EC50 ([4]; [3H]GDP binding to Gαq after 120 min dissociation, 20 °C, read-out: half effective concentration, prevention of [3H]GDP dissociation): 15 nM
- EC50 ([4]; time 30 min, read-out: logEC50, inhibition of [3H]GDP dissociation (converted)): 15.5 nM
- EC50 ([4]; time 60 min, read-out: logEC50, inhibition of [3H]GDP dissociation (converted)): 12.3 nM
- EC50 ([4]; time 90 min, read-out: logEC50, inhibition of [3H]GDP dissociation (converted)): 13.2 nM
- EC50 ([4]; time 120 min, read-out: logEC50, inhibition of [3H]GDP dissociation (converted)): 15.5 nM

Molecule: CCC(=O)N[C@H](C(=O)O[C@H](C(C)C)[C@@H]1NC(=O)[C@H](C)N(C)C(=O)[C@H](C)NC(=O)C(C)N(C)C(=O)[C@@H](Cc2ccccc2)OC(=O)[C@@H](NC(C)=O)[C@@H](C(C)C)OC(=O)[C@H]([C@@H](C)OC)N(C)C1=O)[C@H](O)C(C)C (stereo partly drawn) [FR-red] (Ac-[X1][dPhLac][ξNMeA]A[NMeA][X1](Leu(3R-OH,Nα-propionyl))[NMeT](Me); ester 1-C)
- IC50 (Gq): 891 nM

Molecule: CC(=O)Nc1cccc(-n2c(=O)n(C3CC3)c(=O)c3c(Nc4ccc(I)cc4F)n(C)c(=O)c(C)c32)c1 [Trametinib]
- ERK phosphorylation (ERK1/2): blunted ERK phosphorylation in all cell lines

Molecule: CCCS(=O)(=O)Nc1ccc(F)c(C(=O)c2c[nH]c3ncc(-c4ccc(Cl)cc4)cc23)c1F [Vemurafenib]
- ERK phosphorylation (ERK1/2): inhibited ERK activation only in cell lines harbouring the mutant B-RafV600E allele

Molecule: pertussis toxin [PTX]
- PGD2-induced β-arrestin recruitment to CRTH2 [5]: without effect
- CRTH2-dependent lowering of cAMP [6]: fully prevented
